Assay results taken from patent EP4786464A1, “COMPOUND AS GLUTAMINE CYCLASE INHIBITOR” (Simcere Pharmaceutical Co., Ltd., priority 2023, dated 2025).

Experiments:
human QPCT = molecular target: T1, human QPCT (Homo sapiens, UniProt Q16769); assay: Inhibition of human QPCT enzyme activity (SensoLyte Green Glutaminyl Cyclase Activity Assay Kit); format: biochemical; details: fluorescence Ex/Em = 490 nm/520 nm
T1 construct: purchased Anaspec AS-72230
Experimental: (§1) The inhibition of human QPCT/QPCTL enzyme activity by the compounds was assessed using SensoLyte® Green Glutaminyl Cyclase Activity Assay Kit.
(§2) The working solutions of the test compounds were serially 6-fold diluted from an initial concentration of 200 µM to 7 concentration points in total. In the 75 µL reaction system, the initial working concentration of the test compound was 13.3 µM, and the final concentration of DMSO was 0.3%. 20 µL of prepared QPCT enzyme solution, 5 µL of test compound, and 25 µL of QPCT enzyme substrate were successively added to each well of a 384-well plate. The mixture was shaken on a microplate shaker for 1 min, centrifuged at 400 g for 1 min, and incubated at 37 °C for 30 min. Then, 25 µL of QPCT developer was added to each well, and the mixture was sufficiently mixed using a shaker for 1 min, centrifuged at 400 g for 1 min, and incubated at 37 °C for another 60 min. After the incubation was completed, the fluorescence values were read using a microplate reader, with parameter settings as follows: Ex/Em = 490 nm/520 nm. […] Curves were plotted using GraphPad Prism 9 software with the compound concentration (nM) as the abscissa and the enzyme activity inhibition rate (%) as the ordinate. Four-parameter fitting was performed, and the IC50 values for the inhibition of the QPCT enzyme activity by the compounds were calculated.

human QPCTL = molecular target: T2, human QPCTL (Homo sapiens, UniProt Q9NXS2); assay: Inhibition of human QPCTL enzyme activity (adjusted SensoLyte Green Glutaminyl Cyclase Activity Assay Kit); format: biochemical; details: human QPCTL enzyme (Sino Biological)
T2 construct: purchased Sino Biological NXS6-1
Experimental: as §1
as §2, with “0.5 mM QPCT enzyme substrate was diluted to 5 µM with a buffer at a ratio of 1:100; 50 µg/mL QPCT enzyme was diluted to 125 ng/mL with a buffer and placed on ice for later use; QPCT developer was diluted with a buffer at a ratio of 1:250 and placed on ice for later use (the QPCT enzyme substrate, the QPCT enzyme, the buffer, and the QPCT developer were all from the kit). The working” for “The working”
The SensoLyte® Green Glutaminyl Cyclase Activity Assay Kit was appropriately adjusted by replacing the QPCT enzyme in it with human QPCTL enzyme (Sino Biological, Cat. No. NXS6-1) (the concentration of the working solution was kept unchanged) for determining the IC50 values for the inhibition of human QPCTL enzyme activity by compounds. […]

CYP2C9 = molecular target: T3, CYP2C9 (Homo sapiens, UniProt P11712); assay: Inhibition of CYP2C9 enzyme activity in liver microsomes; format: in vitro ADME; details: substrate diclofenac, 15 min
T3 construct: 1 µL of 20 mg/mL liver microsome solution; from tissue; host or cells: liver microsomes

CYP2D6 = molecular target: T4, CYP2D6 (Homo sapiens, UniProt P10635); assay: Inhibition of CYP2D6 enzyme activity in liver microsomes; format: in vitro ADME; details: substrate dextromethorphan, 15 min
T4 construct: 1 µL of 20 mg/mL liver microsome solution; from tissue; host or cells: liver microsomes

CYP3A4 = molecular target: T5, CYP3A4 (Homo sapiens, UniProt P08684); assay: Inhibition of CYP3A4 enzyme activity in liver microsomes; format: in vitro ADME; details: substrate midazolam, 15 min
T5 construct: 1 µL of 20 mg/mL liver microsome solution; from tissue; host or cells: liver microsomes

[1] = Metabolic stability in liver microsomes (human); format: in vitro ADME; details: pH 7.4; human liver microsomes 0.5 mg/mL, 1 µM compound, 1 mM NADPH; read-out: Half-life (t1/2, min) (human)
Experimental: (§3) The experimental procedures were as follows: 1. […] 2. Preparation of reaction system The reaction system was prepared as follows:
(§4) 3. The reaction system was pre-incubated in a 37 °C water bath for 10 min. 20 µL of 10 mM NADPH solution (NADPH was dissolved by 100 mM phosphate-buffered saline) was added to the reaction system with a final concentration of NADPH being 1 mM. 20 µL phosphate-buffered saline was used instead of the NADPH solution to serve as the negative control. The negative control was used to exclude the effect of chemical stability of the compound itself. 4. The reaction was initiated by adding 2 µL of 100 µM compound of the present disclosure and verapamil, the positive control compound, to the reaction system with a final concentration of the compound being 1 µM. 5.
(§5) All data were calculated using Microsoft Excel software. The peak area was obtained by extracting an ion chromatogram.

[2] = Metabolic stability in liver microsomes (mouse); format: in vitro ADME; details: pH 7.4; mouse liver microsomes 0.5 mg/mL, 1 µM compound, 1 mM NADPH; read-out: Half-life (t1/2, min) (mouse)
Experimental: as §3, §4, §5

T2 sequence (Q9NXS2 whole entry): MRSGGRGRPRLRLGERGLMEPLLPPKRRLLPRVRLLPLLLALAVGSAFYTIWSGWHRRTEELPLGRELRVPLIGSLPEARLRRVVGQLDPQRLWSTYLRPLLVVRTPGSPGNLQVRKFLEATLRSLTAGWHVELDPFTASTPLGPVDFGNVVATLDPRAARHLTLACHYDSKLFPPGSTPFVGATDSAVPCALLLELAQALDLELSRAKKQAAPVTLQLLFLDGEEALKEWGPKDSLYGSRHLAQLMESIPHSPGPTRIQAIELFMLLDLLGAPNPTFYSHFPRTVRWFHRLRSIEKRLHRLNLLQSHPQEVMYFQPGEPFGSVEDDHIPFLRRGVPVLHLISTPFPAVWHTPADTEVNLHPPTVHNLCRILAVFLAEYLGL
T1 sequence (Q16769 29-361): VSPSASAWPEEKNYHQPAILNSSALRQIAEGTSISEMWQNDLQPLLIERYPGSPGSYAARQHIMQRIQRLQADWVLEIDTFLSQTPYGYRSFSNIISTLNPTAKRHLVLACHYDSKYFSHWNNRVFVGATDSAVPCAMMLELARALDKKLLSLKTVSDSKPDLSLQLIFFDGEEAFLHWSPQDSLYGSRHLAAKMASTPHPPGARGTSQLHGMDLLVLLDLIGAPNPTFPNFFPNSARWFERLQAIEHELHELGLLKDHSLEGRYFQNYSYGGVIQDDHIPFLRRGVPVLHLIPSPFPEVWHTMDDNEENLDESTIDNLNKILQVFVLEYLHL
T4 sequence (P10635 whole entry): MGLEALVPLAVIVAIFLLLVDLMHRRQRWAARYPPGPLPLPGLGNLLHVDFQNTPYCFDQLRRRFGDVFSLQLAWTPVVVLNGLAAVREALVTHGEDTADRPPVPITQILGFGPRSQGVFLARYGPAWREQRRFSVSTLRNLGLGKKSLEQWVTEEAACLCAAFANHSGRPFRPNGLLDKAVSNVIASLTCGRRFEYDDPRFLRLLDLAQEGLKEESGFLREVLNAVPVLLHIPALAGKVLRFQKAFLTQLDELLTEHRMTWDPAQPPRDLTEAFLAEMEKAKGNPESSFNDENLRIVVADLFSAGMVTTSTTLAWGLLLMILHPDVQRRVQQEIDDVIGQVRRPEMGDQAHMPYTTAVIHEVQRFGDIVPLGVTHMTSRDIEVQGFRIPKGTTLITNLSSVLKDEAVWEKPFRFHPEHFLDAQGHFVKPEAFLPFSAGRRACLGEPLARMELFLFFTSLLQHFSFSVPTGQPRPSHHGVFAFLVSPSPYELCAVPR
T3 sequence (P11712 whole entry): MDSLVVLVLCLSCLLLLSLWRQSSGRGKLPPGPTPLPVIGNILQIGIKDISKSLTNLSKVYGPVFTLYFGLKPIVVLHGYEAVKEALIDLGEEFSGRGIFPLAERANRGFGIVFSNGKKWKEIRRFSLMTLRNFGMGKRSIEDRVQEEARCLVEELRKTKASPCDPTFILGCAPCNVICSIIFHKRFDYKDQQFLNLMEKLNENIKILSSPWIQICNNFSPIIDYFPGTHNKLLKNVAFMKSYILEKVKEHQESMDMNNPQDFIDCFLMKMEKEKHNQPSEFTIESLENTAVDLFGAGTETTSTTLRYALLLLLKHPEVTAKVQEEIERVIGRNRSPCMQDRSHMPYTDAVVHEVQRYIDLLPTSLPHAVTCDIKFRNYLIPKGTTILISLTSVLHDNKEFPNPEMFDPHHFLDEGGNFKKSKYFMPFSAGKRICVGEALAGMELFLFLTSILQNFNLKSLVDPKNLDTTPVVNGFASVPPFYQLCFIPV
T5 sequence (P08684 whole entry): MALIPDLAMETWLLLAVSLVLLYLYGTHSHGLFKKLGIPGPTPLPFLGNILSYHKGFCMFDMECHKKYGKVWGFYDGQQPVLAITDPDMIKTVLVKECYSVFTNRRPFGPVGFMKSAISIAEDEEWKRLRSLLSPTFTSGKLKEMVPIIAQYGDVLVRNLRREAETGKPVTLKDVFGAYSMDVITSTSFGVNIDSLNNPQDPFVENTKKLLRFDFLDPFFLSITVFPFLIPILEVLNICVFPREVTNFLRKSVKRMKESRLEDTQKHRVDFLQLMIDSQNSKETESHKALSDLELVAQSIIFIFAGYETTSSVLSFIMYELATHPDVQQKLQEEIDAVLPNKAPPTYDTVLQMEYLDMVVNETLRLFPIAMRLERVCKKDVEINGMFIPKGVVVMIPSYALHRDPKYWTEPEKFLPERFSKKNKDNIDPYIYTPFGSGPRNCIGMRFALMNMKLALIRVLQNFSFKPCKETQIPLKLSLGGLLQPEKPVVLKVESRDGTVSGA

Structure (SMILES) | IC50 (human QPCT) | other results
O=C1C[C@H](C23CC(N4CCOCC4)(C2)C3)N1c1ccc2[nH]cnc2c1 [Compound 7] | 36.8 nM | IC50 (human QPCTL): 25.1 nM; IC50 (CYP2C9): > 50000 nM; IC50 (CYP2D6): > 50000 nM; IC50 (CYP3A4): > 50000 nM; half-life at 1 µM [1]: 316 min; half-life at 1 µM [2]: 325 min
N#Cc1ccc(C23CC([C@H]4CC(=O)N4c4ccc5[nH]cnc5c4)(C2)C3)cc1 [Compound 6] | 19.1 nM | –
[2H][C@]1(C23CC(C2)C3)CC(=O)N1c1ccc2[nH]cnc2c1 [Compound 11] | 42.5 nM | –
CCCOC12CC([C@H]3CC(=O)N3c3ccc4[nH]cnc4c3)(C1)C2 [Compound 3] | 52.4 nM | IC50 (human QPCTL): 6.5 nM
O=C1C[C@H](C23CC(c4ccncc4)(C2)C3)N1c1ccc2[nH]cnc2c1 [Compound 5] | 8.5 nM | –
O=C1C[C@H](C23CC(c4ccc(F)cc4)(C2)C3)N1c1ccc2[nH]cnc2c1 [Compound 4] | 10.7 nM | IC50 (human QPCTL): 3.9 nM

Continued, in another order:

IC50 (human QPCT) | Structure (SMILES) | other results
37.3 nM | CC12CC([C@H]3CC(=O)N3c3ccc4nc[nH]c4c3)(C1)C2 [Compound 9] | –
170 nM | O=C1C[C@H](C23CC(F)(C2)C3)N1c1ccc2[nH]cnc2c1 [Compound 2] | –
73.2 nM | O=C1C[C@H](C23CC(Cl)(C2)C3)N1c1ccc2[nH]cnc2c1 [Compound 13] | –
166 nM | COC12CC([C@H]3CC(=O)N3c3ccc4[nH]cnc4c3)(C1)C2 [Compound 8] | –
58.9 nM | O=C1C[C@H](C23CC(CF)(C2)C3)N1c1ccc2nc[nH]c2c1 [Compound 10] | –
